Data on four compounds can be found in patent US4857521A, “Trialkylsilyl pyridinium cephalosporin antibiotics” (Sanwa Kagaku Kenkyusho Co., Ltd., priority 1986, dated 1989).

Structures can show the parent of a compound that is named as a salt.

Type in all cases: cell-based
Assay [1] relates to C. fleundii NIH 10018-68. The assay is described as follows: MIC by agar plate dilution method, C. fleundii NIH 10018-68. The note with it: for MIC: read-out: minimum inhibitory concentration (MIC). As to the method:
(§1) Each series of dilution was prepared with use of testing compounds prepared by the Examples and control compound of Gentamicin as well as a liquid medium. The minimum inhibitory concentration (MIC in μg/ml) to each pathogen (seeding amount: 10^6 cells/ml) was determined, in accordance with the standard method (agar plate dilution method) by the Chemotherapy Society of Japan.

The subject of assay [2] is E. coli NIH. The assay is described as follows: MIC by agar plate dilution method, E. coli NIH. The note with it: seeding 10^6 cells/ml; for MIC: Escherichia coli, read-out: minimum inhibitory concentration (MIC). As for the experimental part: as §1
In assay [3] the test system is P. rettgeri NIH 96. The assay is described as follows: MIC by agar plate dilution method, P. rettgeri NIH 96. The note with it: for MIC: Providencia rettgeri, NIH96, seeding 10^6 cells/ml, read-out: minimum inhibitory concentration (MIC). As to the method:
as §1

The subject of assay [4] is S. typhi T-287. The assay is described as follows: MIC by agar plate dilution method, S. typhi T-287. The note with it: seeding 10^6 cells/ml; for MIC: Salmonella enterica, read-out: minimum inhibitory concentration (MIC). As for the experimental part:
as §1

The test system of assay [5] is P. vulgaris OX-19. Briefly: MIC by agar plate dilution method, P. vulgaris OX-19. The note with it: for MIC: Proteus vulgaris, OX19, seeding 10^6 cells/ml, read-out: minimum inhibitory concentration (MIC). As to the method: as §1
For assay [6], the system named is E. coli K-12. Briefly: MIC by agar plate dilution method, E. coli K-12. The note with it: for MIC: Escherichia coli, K12, seeding 10^6 cells/ml, read-out: minimum inhibitory concentration (MIC). As for the experimental part:
as §1

Assay [7] concerns P. aeruginosa Nc-5. The assay is described as follows: MIC by agar plate dilution method, P. aeruginosa Nc-5. The note with it: for MIC: Pseudomonas aeruginosa, NC5, seeding 10^6 cells/ml, read-out: minimum inhibitory concentration (MIC). As for the experimental part:
as §1

In assay [8] the test system is K. pneumoniae NCTC 9632. Briefly: MIC by agar plate dilution method, K. pneumoniae NCTC 9632. The note with it: for MIC: Klebsiella pneumoniae, NCTC9632, seeding 10^6 cells/ml, read-out: minimum inhibitory concentration (MIC). As to the method:
as §1

Assay [9] deals with S. flexneri 2a EW-10. Briefly: MIC by agar plate dilution method, S. flexneri 2a EW-10. The note with it: Shigella flexneri, 2AEW10, seeding 10^6 cells/ml, read-out: minimum inhibitory concentration (MIC). As for the experimental part:
as §1

Consider `CO/N=C(\C(=O)N[C@@H]1C(=O)N2C(C(=O)[O-])=C(C[n+]3cccc([Si](C)(C)C)c3)CS[C@H]12)c1csc(N)n1` [Example 1, [6R-[6α,7β(Z)]]-1-[7-[[(2-Amino-4-thiazolyl)(methoxyimino)acetyl]amino]-2-carboxy-8-oxo-5-thia-1-azabicyclo[4,2,0]oct-2-en-3-yl]methyl-3-trimethylsilylpyridinium hydroxide, inner salt], for which the MIC in assay [1] was less than 0.2 mg/L; in assay [2], less than 0.2 mg/L; in [3], less than 0.2 mg/L; in assay [4] it was less than 0.2 mg/L; in assay [5], less than 0.2 mg/L; in [6] it was 0.39 mg/L. Besides, the MIC in assay [7] is 1.56 mg/L; in [8], 0.39 mg/L; in assay [9] it was less than 0.2 mg/L.

`CO/N=C(\C(=O)N[C@@H]1C(=O)N2C(C(=O)[O-])=C(C[n+]3ccc([Si](C)(C)C)cc3)CS[C@H]12)c1csc(N)n1` [Example 2, [6R-[6α,7β(Z)]]-1-[7-[[(2-Amino-4-thiazolyl)(methoxyimino)acetyl]amino]-2-carboxy-8-oxo-5-thia-1-azabicyclo[4,2,0]oct-2-en-3-yl]methyl-4-trimethylsilylpyridinium hydroxide, inner salt]: the MIC was less than 0.2 mg/L in [1]; less than 0.2 mg/L in [2]; less than 0.2 mg/L in assay [3]; 0.39 mg/L in [4]; less than 0.2 mg/L in [5]; 0.78 mg/L in [6]. In addition, the values for the MIC in assay [7], in [8] and in assay [9] were 6.25 mg/L, 0.78 mg/L and 0.39 mg/L, respectively.

As to `CO/N=C(\C(=O)N[C@@H]1C(=O)N2C(C(=O)[O-])=C(C[n+]3ccc(OC)c([Si](C)(C)C)c3)CS[C@H]12)c1csc(N)n1` [Example 3, [6R-[6α,7β(Z)]]-1-[7-[[(2-Amino-4-thiazolyl)(methoxyimino)acetyl]amino]-2-carboxy-8-oxo-5-thia-1-azabicyclo[4,2,0]oct-2-en-3-yl]methyl-4-methoxy-3-trimethylsilylpyridinium hydroxide, inner salt], the MIC in [1] was 0.78 mg/L; in assay [2], 0.78 mg/L; in [3], less than 0.2 mg/L; in assay [4] it was 0.39 mg/L; in [5], less than 0.2 mg/L; in assay [6], 0.78 mg/L. The MIC in [7] was 6.25 mg/L; in assay [8], 0.78 mg/L; in assay [9], 0.39 mg/L.

As to Gentamicin [reference compound], the “minimum inhibitory concentration (MIC)” value in assay [1] (C. fleundii NIH 10018-68, seeding 10^6 cells/ml, agar plate dilution) is 0.39 mg/L; in assay [2] it was 0.78 mg/L; in [3] (seeding 10^6 cells/ml), less than 0.20 mg/L; in assay [4], 0.78 mg/L; in assay [5] (seeding 10^6 cells/ml), 3.13 mg/L; in assay [6] (seeding 10^6 cells/ml), 0.78 mg/L. The “minimum inhibitory concentration (MIC)” value in [7] (seeding 10^6 cells/ml) turned out to be 3.13 mg/L; in assay [8] (seeding 10^6 cells/ml) it was 0.78 mg/L.
